Article PMC12210654, “Palazestrant, a novel oral Complete Estrogen Receptor Antagonist (CERAN) and Selective Estrogen Receptor Degrader (SERD), in patients with ER+/HER2− advanced or metastatic breast cancer: phase 1/2 study results” (Breast Cancer Research : BCR, 2025)
“And” between values parts separate entries of the source, which are not always exact repeats. Identical values can stand only once. “Also recorded” adds a separate entry of the source.

Test: Safety: adverse events (NCI CTCAE v5.0), electrocardiograms
Type: in vivo, human
Protocol: Safety assessments included the monitoring of AEs, clinical laboratory parameters, electrocardiograms, and vital signs. AE severity was graded according to the National Cancer Institute Common Terminology Criteria for Adverse Events (version 5.0).
All DLT analyses (phase 1a) were performed in patients enrolled in the study during cycle 1 and who either received 75% of the planned palazestrant doses or experienced a DLT during cycle 1. All PK analyses were performed in patients who received at least 1 dose of palazestrant and had adequate postbaseline PK samples for characterization of PK parameters. All safety analyses were performed and PFS assessed in patients who received at least 1 dose of palazestrant. Clinical response (CR or PR) was assessed in patients who received at least 1 cycle of palazestrant, had measurable disease at baseline, and had at least 1 postbaseline tumor assessment. CBR was assessed in patients who received at least 1 cycle of palazestrant, had at least 1 postbaseline tumor assessment, and started their first dose at least 24 weeks before data cutoff. Patients who discontinued study treatment without radiographic progression within 24 weeks from the first dose were not included in the CBR analysis. PK parameters were estimated using conventional noncompartmental methods. For CBR, estimates were accompanied by 2-sided 95% confidence intervals (95% CIs). For PFS, Kaplan–Meier analyses were used to determine medians, event-free rates, and 95% CIs. For all other outcomes, categorical data were analyzed using frequencies and percentages, and continuous data were analyzed using means (standard deviation) or medians (range), as appropriate.

[1] = any patients treated with palazestrant

CCCN1CC(Oc2ccc([C@@H]3c4[nH]c5ccccc5c4C[C@@H](C)N3CC(C)(C)F)cc2)C1 [palazestrant, Palazestrant]
TRAE nausea, any grade (120 mg/day (n = 86)): 54.7%
TRAE neutropenia, any grade (120 mg/day (n = 86)): 20.9%
TRAE vomiting, any grade (120 mg/day (n = 86)): 24.4%
grade 3 TRAE fatigue (120 mg/day (n = 86)): 2.3%
grade 3 TRAE nausea (120 mg/day (n = 86)): 3.5%
grade 3 TRAE neutropenia (120 mg/day (n = 86)): 3.5%
grade 3 TRAE vomiting (120 mg/day (n = 86)): 2.3%
grade 4 TEAE acute respiratory failure (120 mg/day (n = 86)): 1 patients
grade 4 TEAE neutropenia (120 mg/day (n = 86)): 6 patients
grade ≥ 3 TEAE neutropenia (120 mg/day (n = 86)): 10.5%
patients with 3 grade 4 events (pulmonary embolism, diverticulitis, acute left ventricular failure) (120 mg/day (n = 86)): 1 patient
patients with Grade 3 TEAEs (120 mg/day (n = 86)): 24.4%
patients with Grade 3 treatment-related events (120 mg/day (n = 86)): 11.6%
patients with grade 4 TEAEs (120 mg/day (n = 86)): 9.3%
patients with ≥ 1 TEAE of any grade (120 mg/day (n = 86)): 95.3%
Treatment-related grade 4 neutropenia (120 mg/day (n = 86), 5 patients): 5.8% and 6%
time of grade 4 neutropenia events after initiation of palazestrant (120 mg/day, approximately): 6-8 weeks
treatment discontinuation due to AEs (60 or 120 mg/day (n = 116)): 6.0%
severity of most TEAEs (RP2D of 120 mg/day): grade 1–2; also recorded: grade 1 or 2
severity of the majority of TRAEs (RP2D of 120 mg/day): grade 1 or 2
TEAE bradycardia (RP2D, 120 mg/day): 9%
TEAE photopsia (RP2D, 120 mg/day): 5%
grade of all bradycardia and photopsia events (RP2D, 120 mg/day): grade 1
treatment-related diarrhea of any grade (RP2D, 120 mg/day): 13%
treatment-related diarrhea, grade ≥ 3 (RP2D, 120 mg/day): no grade ≥ 3 events
severity of the majority of TEAEs (all dose-escalation cohorts (30 to 300 mg)): grade 1 or 2
QTcF values [1]: ≤ 500 ms
changes in QTcF [1]: no clinically significant changes
discontinuations due to AEs assessed as related to palazestrant (of seven patients who discontinued due to AEs): 5 patients
neutropenia resolved upon treatment discontinuation (of the 5 patients with treatment-related grade 4 neutropenia, 120 mg/day): 2 patients
grade 4 neutropenia resolved following discontinuation of palazestrant (of the 6 patients with grade 4 neutropenia): 3 patients
TEAE Constipation, Toxicity Grade All (phase 1a, 30 mg (N=5)): 1 (20.0)
TEAE Constipation, Toxicity Grade G3 (phase 1a, 30 mg (N=5)): 0
TEAE Constipation, Toxicity Grade G4 (phase 1a, 30 mg (N=5)): 0
TEAE Decreased appetite, Toxicity Grade All (phase 1a, 30 mg (N=5)): 1 (20.0)
TEAE Decreased appetite, Toxicity Grade G3 (phase 1a, 30 mg (N=5)): 0
TEAE Decreased appetite, Toxicity Grade G4 (phase 1a, 30 mg (N=5)): 0
TEAE Diarrhea, Toxicity Grade All (phase 1a, 30 mg (N=5)): 2 (40.0)
TEAE Diarrhea, Toxicity Grade G3 (phase 1a, 30 mg (N=5)): 0
TEAE Diarrhea, Toxicity Grade G4 (phase 1a, 30 mg (N=5)): 0
TEAE Fatigue, Toxicity Grade All (phase 1a, 30 mg (N=5)): 2 (40.0)
TEAE Fatigue, Toxicity Grade G3 (phase 1a, 30 mg (N=5)): 0
TEAE Fatigue, Toxicity Grade G4 (phase 1a, 30 mg (N=5)): 0
TEAE Headache, Toxicity Grade All (phase 1a, 30 mg (N=5)): 1 (20.0)
TEAE Headache, Toxicity Grade G3 (phase 1a, 30 mg (N=5)): 0
TEAE Headache, Toxicity Grade G4 (phase 1a, 30 mg (N=5)): 0
TEAE Maculopapular rash, Toxicity Grade All (phase 1a, 30 mg (N=5)): 1 (20.0)
TEAE Maculopapular rash, Toxicity Grade G3 (phase 1a, 30 mg (N=5)): 0
TEAE Maculopapular rash, Toxicity Grade G4 (phase 1a, 30 mg (N=5)): 0
TEAE Nausea, Toxicity Grade All (phase 1a, 30 mg (N=5)): 2 (40.0)
TEAE Nausea, Toxicity Grade G3 (phase 1a, 30 mg (N=5)): 0
TEAE Nausea, Toxicity Grade G4 (phase 1a, 30 mg (N=5)): 0
TEAE Neutropenia, Toxicity Grade G3 (phase 1a, 30 mg (N=5)): 0
TEAE Neutropenia, Toxicity Grade G4 (phase 1a, 30 mg (N=5)): 1 (20.0)
TEAE Vomiting, Toxicity Grade All (phase 1a, 30 mg (N=5)): 1 (20.0)
TEAE Vomiting, Toxicity Grade G3 (phase 1a, 30 mg (N=5)): 0
TEAE Vomiting, Toxicity Grade G4 (phase 1a, 30 mg (N=5)): 0
TEAE Neutropenia, Toxicity Grade All (phase 1a, 30 mg (N=5), includes neutropenia and neutrophil count decreased): 1 (20.0)
TEAE Constipation, Toxicity Grade All (phase 1a, 60 mg (N=6)): 1 (16.7)
TEAE Constipation, Toxicity Grade G3 (phase 1a, 60 mg (N=6)): 0
TEAE Constipation, Toxicity Grade G4 (phase 1a, 60 mg (N=6)): 0
TEAE Decreased appetite, Toxicity Grade All (phase 1a, 60 mg (N=6)): 0
TEAE Decreased appetite, Toxicity Grade G3 (phase 1a, 60 mg (N=6)): 0
TEAE Decreased appetite, Toxicity Grade G4 (phase 1a, 60 mg (N=6)): 0
TEAE Diarrhea, Toxicity Grade All (phase 1a, 60 mg (N=6)): 2 (33.3)
TEAE Diarrhea, Toxicity Grade G3 (phase 1a, 60 mg (N=6)): 0
TEAE Diarrhea, Toxicity Grade G4 (phase 1a, 60 mg (N=6)): 0
TEAE Fatigue, Toxicity Grade All (phase 1a, 60 mg (N=6)): 3 (50.0)
TEAE Fatigue, Toxicity Grade G3 (phase 1a, 60 mg (N=6)): 0
TEAE Fatigue, Toxicity Grade G4 (phase 1a, 60 mg (N=6)): 0
TEAE Headache, Toxicity Grade All (phase 1a, 60 mg (N=6)): 1 (16.7)
TEAE Headache, Toxicity Grade G3 (phase 1a, 60 mg (N=6)): 0
TEAE Headache, Toxicity Grade G4 (phase 1a, 60 mg (N=6)): 0
TEAE Maculopapular rash, Toxicity Grade All (phase 1a, 60 mg (N=6)): 1 (16.7)
TEAE Maculopapular rash, Toxicity Grade G3 (phase 1a, 60 mg (N=6)): 0
TEAE Maculopapular rash, Toxicity Grade G4 (phase 1a, 60 mg (N=6)): 0
TEAE Nausea, Toxicity Grade All (phase 1a, 60 mg (N=6)): 2 (33.3)
TEAE Nausea, Toxicity Grade G3 (phase 1a, 60 mg (N=6)): 0
TEAE Nausea, Toxicity Grade G4 (phase 1a, 60 mg (N=6)): 0
TEAE Neutropenia, Toxicity Grade G3 (phase 1a, 60 mg (N=6)): 0
TEAE Neutropenia, Toxicity Grade G4 (phase 1a, 60 mg (N=6)): 0
TEAE Vomiting, Toxicity Grade All (phase 1a, 60 mg (N=6)): 1 (16.7)
